# Patent US20250170090A1, “METHOD FOR PREVENTING OR TREATING DISEASE OR DISORDER ASSOCIATED WITH ANTINEOPLASTIC AGENT” (ONQUALITY PHARMACEUTICALS CHINA LTD., priority 2022, published 2025)
# Like-named read-outs stand apart in the source and are kept apart here.
# Legend:
# [1] = tested on: hand-foot syndrome induced by anti-tumor agents; test: Prevention of hand-foot syndrome induced by anti-tumor agents in rats, NO-NSAID ointment on hind paws (Table 2-2); format: in vivo, SD rats; conditions: Rattus norvegicus, topical, read-out: Control rate; for responders at 1 %: ointment 1% wt; for responders at 5 %: ointment 5% wt; for responders at 3 %: ointment 3% wt
# From the text: A rat animal model was constructed, and the anti-tumor agents shown in Table 2-2 were respectively administered to 8-week-old female SD rats by daily oral gavage. […] Therefore, rats serve as an excellent animal model for simulating side effects (such as hand-foot syndrome) caused by anti-tumor agents.
# After the rats (about 200 g) were fed and adapted for one week, they were divided into a NO-NSAID group and a control group, with 10 rats in each group, and a gavage administration test was conducted. The various anti-tumor agents were dissolve in a mixed solution of Cremophor EL:ethanol=1:1. The anti-tumor agent solution were diluted with PBS to the required concentration (about 3 times with PBS solution) before gavage administration. After gavage, an ointment containing NO-NSAID was applied to the hind paws of the rats, while the control group was applied with a blank ointment. After application, the rats were placed in a fixed cylinder for 4 hours. After 4 hours, the rats were released and the residual ointment was wiped off with clean water, then the rats were returned to the cage. The gavage frequency of inhibitors was shown in Table 2-2, and NO-NSAID was only applied once a day. The gavage and application operations were repeated daily until the end of the experiment.
# Table 2-2 lists the animal experimental combinations of various anti-tumor agents and NO-NSAID ointments, as well as the corresponding experimental results (wherein the value in the control rate column=the hand-foot syndrome incidence rate in the blank group−the hand-foot syndrome incidence rate in the treatment group).
# HUVEC cells = test: CCK-8 cell viability: alleviation of proliferative toxicity of anti-tumor agents on HUVEC cells (Tables 7-1, 7-2); format: cell-based; conditions: for activation at 100 µM: Homo sapiens, 24 h, percentage increase in viable cells vs anti-tumor agent alone, read-out: Response rate % (average)
# Method: The cultured HUVEC cells were digested the suspended, counted, and seed into a 96-well plate with 5,000-10,000 cells per well. The wells are divided into the following groups: blank control group, anti-tumor agent group, anti-tumor agent+NO-NSAID group, anti-tumor agent solvent group, NO-NSAID control group. Wherein each well of each group contained a basic medium, and the final liquid volume contained in each well was about 100 μL. The grouping situation was as follows: • 1) Blank control group: no solution was added except normally replacing the medium; • 2) Anti-tumor agent group: added the anti-tumor agent solution (the final concentration was shown in Table 7-1 and Table 7-2, the solvent of the anti-tumor agent solution was DMSO); • 3) Anti-tumor agent+NO-NSAID group: added the anti-tumor agent solution and the NO-NSAID solution (the final concentrations of anti-tumor agent and NO-NSAID were shown in Table 7-1 and Table 7-2, and according to the solubility of NO-NSAID, the solvent of NO-NSAID solution was selected as ethanol or sterile water, and minor volume differences in each group were adjusted by added the corresponding solvent); • 4) Anti-tumor agent solvent group: an equal volume of DMSO as contained in the corresponding anti-tumor agent solution in Group 2) was added; • 5) NO-NSAID control group: the same volume and type of solvent (for example, ethanol or sterile water) corresponding to the NO-NSAID contained in group 3) was added.
# The anti-tumor agent solvent group was not involved in data processing and was only used as a reference for evaluating experimental system error. The NO-NSAID solvent control group was used for data correction to eliminate the influence of the solvent on the results.
# After culturing for 24-48 hours, the Cell Counting Kit-8 (CCK-8) detection kit (C0037, Shanghai Beyotime Biotechnology Co., Ltd., Beyotime Biotechnology) was used to determine the cell viability. This allows for the calculation of the proliferative toxicity of anti-tumor agent on cell and the mitigating effect of NO-NSAID on proliferative toxicity. The results were statistically analyzed and plotted using GraphPad Prism 6.0 software and t test.
# [2] = 120 h, Sorafenib 80 mg/kg once a day, Days 5
# [3] = 432 h, Cabozantinib 50 mg/kg once a day, Days 18
# [4] = 432 h, Lenvatinib 100 mg/kg twice a day, Days 18
# [5] = 432 h, Nintedanib 110 mg/kg once a day, Days 18
# [6] = 432 h, Regorafenib 90 mg/kg once a day, Days 18
# [7] = Afatinib (10 μM), NO-NSAID 100 μM
# [8] = Cabozantinib (5 μM), NO-NSAID 100 μM
# [9] = Dabrafenib (10 μM), NO-NSAID 100 μM
# [10] = Everolimus (5 μM), NO-NSAID 100 μM
# [11] = Infigratinib (15 μM), NO-NSAID 100 μM
# [12] = Lapatinib (5 μM), NO-NSAID 100 μM
# [13] = Lenvatinib (10 μM), NO-NSAID 100 μM
# [14] = Olmutinib (10 μM), NO-NSAID 100 μM
# [15] = Regorafenib (5 μM), NO-NSAID 100 μM
# [16] = Selumetinib (5 μM), NO-NSAID 100 μM
# [17] = Sorafenib (5 μM), NO-NSAID 100 μM
# [18] = Sunitinib (5 μM), NO-NSAID 100 μM
structure (smiles),measurement,setting,value
CC(=O)Oc1ccccc1C(=O)Oc1cccc(CO[N+](=O)[O-])c1 [Compound A2],responders at 1 %,[1]; [2],50%
same,responders at 2 %,"[1]; 120 h, Sorafenib 80 mg/kg once a day, ointment 2% wt, Days 5",50%
same,responders at 5 %,[1]; [2],66.7%
same,responders at 10 %,"[1]; 120 h, Sorafenib 80 mg/kg once a day, ointment 10% wt, Days 5",80%
same,responders at 3 %,"[1]; 360 h, Apatinib 105 mg/kg once a day, Days 15",50%
same,responders at 3 %,"[1]; 360 h, Encorafenib 80 mg/kg once a day, Days 15",42.9%
same,responders at 3 %,"[1]; 360 h, Lapatinib 120 mg/kg twice a day, Days 15",33.3%
same,responders at 3 %,"[1]; 360 h, Sunitinib 120 mg/kg once a day, Days 15",42.9%
same,responders at 3 %,"[1]; 384 h, Fruquintinib 40 mg/kg once a day, Days 16",71.4%
same,responders at 3 %,"[1]; 432 h, Anlotinib 20 mg/kg once a day, Days 18",66.7%
same,responders at 3 %,"[1]; 432 h, Axitinib 50 mg/kg once a day, Days 18",40%
same,responders at 1 %,[1]; [3],28.6%
same,responders at 2.5 %,"[1]; 432 h, Cabozantinib 50 mg/kg once a day, ointment 2.50% wt, Days 18",42.9%
same,responders at 5 %,[1]; [3],66.7%
same,responders at 1 %,[1]; [4],42.9%
same,responders at 3 %,[1]; [4],42.9%
same,responders at 5 %,[1]; [4],71.4%
same,responders at 1 %,[1]; [5],33.3%
same,responders at 3 %,[1]; [5],50%
same,responders at 5 %,[1]; [5],66.7%
same,responders at 1 %,[1]; [6],57.1%
same,responders at 5 %,[1]; [6],66.7%
same,responders at 3 %,"[1]; 480 h, Erdafitinib 45 mg/kg once a day, Days 20",71.4%
same,responders at 3 %,"[1]; 480 h, Olmutinib 100 mg/kg once a day, Days 20",60%
same,NO-NSAID response rate % (average),"HUVEC cells; Afatinib (10 μM), NO-NSAID 0.1 μM",15%
same,NO-NSAID response rate % (average),"HUVEC cells; Afatinib (10 μM), NO-NSAID 1 μM",17%
same,NO-NSAID response rate % (average),HUVEC cells; [7],46%
same,NO-NSAID response rate % (average),"HUVEC cells; Afatinib (10 μM), NO-NSAID 500 μM",38%
same,NO-NSAID response rate % (average),"HUVEC cells; Cabozantinib (5 μM), NO-NSAID 0.1 μM",3%
same,NO-NSAID response rate % (average),"HUVEC cells; Cabozantinib (5 μM), NO-NSAID 1 μM",4%
same,NO-NSAID response rate % (average),HUVEC cells; [8],10%
same,NO-NSAID response rate % (average),"HUVEC cells; Cabozantinib (5 μM), NO-NSAID 500 μM",12%
same,NO-NSAID response rate % (average),"HUVEC cells; Dabrafenib (10 μM), NO-NSAID 0.1 μM",23%
same,NO-NSAID response rate % (average),"HUVEC cells; Dabrafenib (10 μM), NO-NSAID 1 μM",36%
same,NO-NSAID response rate % (average),HUVEC cells; [9],49%
same,NO-NSAID response rate % (average),"HUVEC cells; Dabrafenib (10 μM), NO-NSAID 500 μM",30%
same,NO-NSAID response rate % (average),"HUVEC cells; Everolimus (5 μM), NO-NSAID 0.1 μM",−11%
same,NO-NSAID response rate % (average),"HUVEC cells; Everolimus (5 μM), NO-NSAID 1 μM",−6%
same,NO-NSAID response rate % (average),HUVEC cells; [10],33%
same,NO-NSAID response rate % (average),"HUVEC cells; Everolimus (5 μM), NO-NSAID 500 μM",−9%
same,activation at 100 µM,HUVEC cells; [7],46%
same,activation at 100 µM,"HUVEC cells; Anlotinib (5 μM), NO-NSAID 100 μM",78%
same,activation at 100 µM,"HUVEC cells; Apatinib (10 μM), NO-NSAID 100 μM",56%
same,activation at 100 µM,"HUVEC cells; Axitinib (10 μM), NO-NSAID 100 μM",77%
same,activation at 100 µM,HUVEC cells; [8],10%
same,activation at 100 µM,HUVEC cells; [9],49%
same,activation at 100 µM,"HUVEC cells; Dacomitinib (5 μM), NO-NSAID 100 μM",12%
same,activation at 100 µM,"HUVEC cells; Encorafenib (5 μM), NO-NSAID 100 μM",76%
same,activation at 100 µM,"HUVEC cells; Erdafitinib (10 μM), NO-NSAID 100 μM",49%
same,activation at 100 µM,HUVEC cells; [10],33%
same,activation at 100 µM,"HUVEC cells; Famitinib (5 μM), NO-NSAID 100 μM",31%
same,activation at 100 µM,"HUVEC cells; Fruquintinib (10 μM), NO-NSAID 100 μM",41%
same,activation at 100 µM,"HUVEC cells; Gefitinib (10 μM), NO-NSAID 100 μM",76%
same,activation at 100 µM,HUVEC cells; [11],73%
same,activation at 100 µM,HUVEC cells; [12],16%
same,activation at 100 µM,HUVEC cells; [13],34%
same,activation at 100 µM,HUVEC cells; [14],33%
same,activation at 100 µM,HUVEC cells; [15],50%
same,activation at 100 µM,HUVEC cells; [16],83%
same,activation at 100 µM,HUVEC cells; [17],56%
same,activation at 100 µM,HUVEC cells; [18],65%
same,activation at 100 µM,"HUVEC cells; Vemurafenib (5 μM), NO-NSAID 100 μM",54%
same,NO-NSAID response rate % (average),"HUVEC cells; Infigratinib (15 μM), NO-NSAID 0.1 μM",30%
same,NO-NSAID response rate % (average),"HUVEC cells; Infigratinib (15 μM), NO-NSAID 1 μM",18%
same,NO-NSAID response rate % (average),HUVEC cells; [11],73%
same,NO-NSAID response rate % (average),"HUVEC cells; Infigratinib (15 μM), NO-NSAID 500 μM",17%
same,NO-NSAID response rate % (average),"HUVEC cells; Lapatinib (5 μM), NO-NSAID 0.1 μM",14%
same,NO-NSAID response rate % (average),"HUVEC cells; Lapatinib (5 μM), NO-NSAID 1 μM",32%
same,NO-NSAID response rate % (average),HUVEC cells; [12],16%
same,NO-NSAID response rate % (average),"HUVEC cells; Lapatinib (5 μM), NO-NSAID 500 μM",20%
same,NO-NSAID response rate % (average),"HUVEC cells; Lenvatinib (10 μM), NO-NSAID 0.1 μM",25%
same,NO-NSAID response rate % (average),"HUVEC cells; Lenvatinib (10 μM), NO-NSAID 1 μM",24%
same,NO-NSAID response rate % (average),HUVEC cells; [13],34%
same,NO-NSAID response rate % (average),"HUVEC cells; Lenvatinib (10 μM), NO-NSAID 500 μM",31%
same,NO-NSAID response rate % (average),"HUVEC cells; Olmutinib (10 μM), NO-NSAID 0.1 μM",24%
same,NO-NSAID response rate % (average),"HUVEC cells; Olmutinib (10 μM), NO-NSAID 1 μM",24%
same,NO-NSAID response rate % (average),HUVEC cells; [14],33%
same,NO-NSAID response rate % (average),"HUVEC cells; Olmutinib (10 μM), NO-NSAID 500 μM",23%
same,NO-NSAID response rate % (average),"HUVEC cells; Regorafenib (5 μM), NO-NSAID 0.1 μM",32%
same,NO-NSAID response rate % (average),"HUVEC cells; Regorafenib (5 μM), NO-NSAID 1 μM",30%
same,NO-NSAID response rate % (average),HUVEC cells; [15],50%
same,NO-NSAID response rate % (average),"HUVEC cells; Regorafenib (5 μM), NO-NSAID 500 μM",36%
same,NO-NSAID response rate % (average),"HUVEC cells; Selumetinib (5 μM), NO-NSAID 0.1 μM",34%
same,NO-NSAID response rate % (average),"HUVEC cells; Selumetinib (5 μM), NO-NSAID 1 μM",48%
same,NO-NSAID response rate % (average),HUVEC cells; [16],83%
same,NO-NSAID response rate % (average),"HUVEC cells; Selumetinib (5 μM), NO-NSAID 500 μM",30%
same,NO-NSAID response rate % (average),"HUVEC cells; Sorafenib (5 μM), NO-NSAID 0.1 μM",5%
same,NO-NSAID response rate % (average),"HUVEC cells; Sorafenib (5 μM), NO-NSAID 1 μM",20%
same,NO-NSAID response rate % (average),HUVEC cells; [17],56%
same,NO-NSAID response rate % (average),"HUVEC cells; Sorafenib (5 μM), NO-NSAID 500 μM",17%
same,NO-NSAID response rate % (average),"HUVEC cells; Sunitinib (5 μM), NO-NSAID 0.1 μM",13%
same,NO-NSAID response rate % (average),"HUVEC cells; Sunitinib (5 μM), NO-NSAID 1 μM",7%
same,NO-NSAID response rate % (average),HUVEC cells; [18],65%
same,NO-NSAID response rate % (average),"HUVEC cells; Sunitinib (5 μM), NO-NSAID 500 μM",2%
